{
  "source": "patent US9629899B2",
  "about": "“Targeted cargo protein combination therapy” (priority 2008, dated 2017)",
  "key": {"MIA-PaCa-2 cells": {"test_system": "MIA-PaCa-2 cells", "experiment": "cells", "type": "cell-based, human"}, "SW1990 cells": {"test_system": "SW1990 cells", "experiment": "cells", "type": "cell-based, human"}, "Capan-1 cells": {"test_system": "Capan-1 cells", "experiment": "cells", "type": "cell-based, human"}, "HS766T cells": {"test_system": "HS766T cells", "experiment": "Protein synthesis inhibition assay (cytotoxicity), HS766T", "type": "cell-based", "details": "Homo sapiens, read-out: IC50 (50% protein synthesis inhibition), single agent", "experimental": "Protein synthesis inhibition assay and assessment of synergism or antagonism. […] On the basis of the isobologram analysis for mutually exclusive effects, the CI value was calculated as follows:"}, "MIA-PaCa-2-GFP tumors [1]": {"test_system": "MIA-PaCa-2-GFP tumors", "experiment": "Early pancreatic tumor model, orthotopic MIA-PaCa-2-GFP, whole-body imaging and survival", "type": "in vivo, nude mice", "experimental": "(§1) Surgical orthotopic implantation of MIA-PaCa-2-GFP tumors. MIA-PaCa-2-GFP cells were injected s.c. into the right dorsal flank of nude mice. Pancreatic tumors, grown s.c. in nude mice, were cut with scissors and minced into f3% 3% 3-mm pieces. For orthotopic surgery, the pancreas was carefully exposed, and tumor chunks were transplanted on the middle of the pancreas with a 6-0 Dexon surgical suture (Davis-Geck, Inc.). The pancreas was then returned to the peritoneal cavity, the abdominal wall, and the skin was closed with 6-0 Dexon sutures.\nExperimental design and treatment. For early pancreatic cancer model, primary tumor lesions were detected by external whole-body imaging on day 4 after transplantation. Once the tumors were visualized, mice were randomized into four groups of 10 each. Treatment was initiated on day 5. For advanced pancreatic cancer model, primary and metastasis tumor lesions were detected by external whole-body imaging on day 14 post-transplantation of tumor chunk and randomized into four groups of 10 mice each. Treatment was initiated on day 15.\n(§2) Statistical analysis. The mean tumor volume in therapeutic and control groups was analyzed by ANOVA. Survival curves were generated by Kaplan-Meier method and compared by using the log-rank test.\nTreatment was initiated on day 5 after transplantation. […]"}, "MIA-PaCa-2-GFP tumors [2]": {"test_system": "MIA-PaCa-2-GFP tumors", "experiment": "Advanced metastatic pancreatic tumor model, orthotopic MIA-PaCa-2-GFP, whole-body imaging and survival", "type": "in vivo, nude mice", "experimental": "as §1\nFor advanced pancreatic cancer model, primary and metastasis tumor lesions were detected by external whole-body imaging on day 14 post-transplantation of tumor chunk and randomized into four groups of 10 mice each. Treatment was initiated on day 15.\nThe mean tumor volume in therapeutic and control groups was analyzed by ANOVA. Survival curves were generated by Kaplan-Meier method and compared by using the log-rank test.\nGroup 2 animals received gemcitabine (150 mg/kg) by i.p. administration twice a week as long as the experiment lasted."}, "[3]": {"test_system": "clinical pancreatic cancer sample xenograft", "experiment": "Advanced orthotopic pancreatic cancer model from a clinical sample, survival", "type": "in vivo", "details": "clinical sample in SCID mice, treatment from day 31; gemcitabine 150 mg/kg i.p. twice a week; PRX321 100 ug/kg i.p. twice a day days 31-35; non-treatment 62 days", "experimental": "Primary and orthotopic pancreatic cancer model using a clinical sample. […] Viable tumor tissue from specimen was cut into small pieces (3% 3% 3 mm) and implanted in the pancreas of 5- to 6-week-old male SCID mice. Primary xenografts were propagated continuously in SCID mice for in vivo testing. Clinical sample-bearing mice were also treated after day 31 by the same protocol as described above.\nas §2\nThese mice, when advanced disease developed, were divided into four groups on day 31 and treated as described in Materials and Methods. […] Group 2 animals received gemcitabine (150 mg/kg) by i.p. administration twice a week as long as the experiment lasted."}, "[4]": {"details": "mice receiving optimal doses; data not shown"}, "[5]": {"details": "Homo sapiens, read-out: IC50 (50% protein synthesis inhibition), single agent"}},
  "data": [
    {"smiles": "Nc1ccn([C@@H]2O[C@H](CO)[C@@H](O)C2(F)F)c(=O)n1", "note": "[Gemcitabine]", "values": [
      {"measurement": "IC50", "setting": "MIA-PaCa-2 cells; [5]", "result": 22, "unit": "nM"},
      {"measurement": "IC75 (75% protein synthesis inhibition)", "setting": "MIA-PaCa-2 cells; single agent", "result": 280, "unit": "nM"},
      {"measurement": "IC50", "setting": "SW1990 cells; [5]", "result": 1000, "unit": "nM"},
      {"measurement": "IC75 (75% protein synthesis inhibition)", "setting": "SW1990 cells; single agent", "result": "3,000 nmol/L"},
      {"measurement": "IC50", "setting": "Capan-1 cells; [5]", "result": 3.2, "unit": "nM"},
      {"measurement": "IC75 (75% protein synthesis inhibition)", "setting": "Capan-1 cells; single agent", "result": 9, "unit": "nM"},
      {"measurement": "IC50", "setting": "HS766T cells", "result": 14, "unit": "nM"},
      {"measurement": "Median survival time", "setting": "MIA-PaCa-2-GFP tumors [1]; non-treatment group 27 days", "result": 54, "unit": "days"},
      {"measurement": "Tumor growth compared with non-treatment group (whole-body imaging)", "setting": "MIA-PaCa-2-GFP tumors [1]; treatment from day 5, gemcitabine 150 mg/kg i.p. twice a week, PRX321 100 ug/kg i.p. twice a day for 5 days", "result": "reduction in the rate of tumor growth"},
      {"measurement": "Reduction in tumor size on day 28 compared with the no treatment group", "setting": "MIA-PaCa-2-GFP tumors [2]; day 28", "result": 39.8, "unit": "%"},
      {"measurement": "Median survival time", "setting": "MIA-PaCa-2-GFP tumors [2]; non-treatment group 28 days", "result": 34, "unit": "days"},
      {"measurement": "Tumor growth compared with non-treatment group (whole-body imaging)", "setting": "MIA-PaCa-2-GFP tumors [2]; treatment from day 15, gemcitabine 150 mg/kg i.p. twice a week, PRX321 100 ug/kg i.p. twice a day for 5 days", "result": "reduction in the rate of tumor growth"},
      {"measurement": "Median survival time", "setting": "[3]", "result": 86, "unit": "days"},
      {"measurement": "Visible signs of toxicity (weight loss, inactivity)", "setting": "[4]", "result": "no visible signs of toxicity"}
    ]}
  ]
}
